These are literature values, as cited in article PMC10014483 (Bioorganic & Medicinal Chemistry Letters, 2023).

The conditions of data set [1]: mice.
The test system of data set [2] is SARS-CoV-2. To be noted: transgenic mouse model of SARS-CoV-2 infection, orally effective.

Regarding `CC(C)(C)OC(=O)Nc1cccn([C@@H](CC2CC2)C(=O)N[C@@H](C[C@@H]2CCNC2=O)C(=O)C(=O)NCc2ccccc2)c1=O` [Compound 13b], the toxicity result in data set [1] is listed as “low toxicity”.
Turning to `CC1(C)[C@@H]2[C@@H](C(=O)N[C@H](C=O)C[C@@H]3CCNC3=O)N(C(=O)COc3ccc(OC(F)(F)F)cc3)C[C@@H]21` [MI-09], in data set [2], the “viral load in the lungs and lung lesions” value is listed as “significantly reduced”.
In the case of `CC(C)(C)[C@H](NC(=O)C(F)(F)F)C(=O)N1C[C@H]2[C@@H]([C@H]1C(=O)N[C@H](C#N)C[C@@H]1CCNC1=O)C2(C)C` [Nirmatrelvir], the oral bioavailability entry is reported as “unsatisfied” and the plasma half-life result is reported as “short”.
